Measurements taken from ChEMBL document CHEMBL3137667, “[Drug-induced liver injury; fourteenth updated edition of the bibliographic database of liver injuries and related drugs]” (Gastroenterol Clin Biol, 2004).

Tests used:
[1] = Highest frequency of moderate liver toxicity observed during clinical trials, expressed as a percentage. [column '% BIOL' in source]; conditions: human
[2] = human
[3] = human; remark: listed apart in the source
[4] = human; remark: listed apart in the source
[5] = human; remark: listed apart in the source
[6] = human; remark: listed apart in the source
[7] = human, serum, 4383 h
[8] = human; remark: listed apart in the source
[9] = human; remark: listed apart in the source
[10] = human; remark: listed apart in the source
[11] = human; remark: listed apart in the source
[12] = human, serum
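For Hepatotoxicity (association with vascular disease) in this document: count of indexed literature references reporting vascular liver injury in humans, e.g. peliosis hepatitis, hepatic veno-occlusive disease or Budd-Chiari syndrome.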
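For Hepatotoxicity (benign tumour) in this document: value is a count of indexed literature references citing a benign tumour confirmed by histopathology.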
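For Hepatotoxicity (choleostasis) in this document: human cholestatic liver injury, shown by histopathology or by peak ALT or AST elevation over alkaline phosphatase ratio below 2, value counts indexed literature reports.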
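For Hepatotoxicity (chronic liver disease) in this document: chronic liver injury confirmed by histopathology or persistently raised serum aminotransferase activity beyond 6 months, value given as the count of indexed literature references.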
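For Hepatotoxicity (cirrhosis) in this document: value is a count of indexed literature references reporting cirrhosis confirmed by histopathology.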
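For Hepatotoxicity (cytolytic) in this document: human cytolytic liver injury, shown by histopathology or by a ratio above 5 of peak ALT or AST elevation to alkaline phosphatase elevation, value counts indexed references.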
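For Hepatotoxicity (granulomatous hepatitis) in this document: value is a count of indexed literature references reporting granulomatous liver disease confirmed by histopathology.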
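For Hepatotoxicity (malignant tumour) in this document: malignant tumour confirmed by histopathology, value gives the count of indexed literature references reporting it.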
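For Hepatotoxicity (severe hepatitis) in this document: human clinical data: severe hepatitis, meaning potentially life-threatening liver failure or clinically observed cases, the value counts how many indexed literature references report it.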
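For Hepatotoxicity (steatosis) in this document: steatosis confirmed by histopathology, value is the count of indexed references.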

Oc1ncc(N(CCCl)CCCl)c(O)n1 [URACIL MUSTARD]
Hepatotoxicity (moderate) ([1]; Liver): 0%
Hepatotoxicity (choleostasis) ([2]; Liver): 0
Hepatotoxicity (cirrhosis) [3]: 0
Hepatotoxicity (steatosis) [4]: 0
Hepatotoxicity (cytolytic) ([5]; Liver): 1
Hepatotoxicity (association with vascular disease) [6]: 0
Hepatotoxicity (chronic liver disease) [7]: 1
Hepatotoxicity (severe hepatitis) ([8]; Liver): 0
Hepatotoxicity (malignant tumour) [9]: 0
Hepatotoxicity (benign tumour) [10]: 0
Hepatotoxicity (granulomatous hepatitis) ([11]; Liver): 0
Hepatotoxicity (moderate) [12]: 0

Oc1c(Cl)c(Cl)c(Cl)c(Cl)c1Cl [PENTACHLOROPHENOL]
Hepatotoxicity (moderate) [1]: 0%
Hepatotoxicity (choleostasis) [2]: 0
Hepatotoxicity (cirrhosis) [3]: 0
Hepatotoxicity (steatosis) [4]: 1
Hepatotoxicity (cytolytic) [5]: 0
Hepatotoxicity (association with vascular disease) [6]: 0
Hepatotoxicity (chronic liver disease) [7]: 1
Hepatotoxicity (severe hepatitis) [8]: 0
Hepatotoxicity (malignant tumour) [9]: 0
Hepatotoxicity (benign tumour) [10]: 0
Hepatotoxicity (granulomatous hepatitis) [11]: 0
Hepatotoxicity (moderate) [12]: 0

C#CC(C)(O)CC (configuration not stated) [MEPARFYNOL]
Hepatotoxicity (moderate) [1]: 0%
Hepatotoxicity (choleostasis) [2]: 1
Hepatotoxicity (cirrhosis) [3]: 0
Hepatotoxicity (steatosis) [4]: 0
Hepatotoxicity (cytolytic) [5]: 0
Hepatotoxicity (association with vascular disease) [6]: 0
Hepatotoxicity (chronic liver disease) [7]: 0
Hepatotoxicity (severe hepatitis) [8]: 0
Hepatotoxicity (malignant tumour) [9]: 0
Hepatotoxicity (benign tumour) [10]: 0
Hepatotoxicity (granulomatous hepatitis) [11]: 0
Hepatotoxicity (moderate) [12]: 0

Nc1ccc(S(=O)(=O)Nc2ccccn2)cc1 [SULFAPYRIDINE]
Hepatotoxicity (moderate) ([1]; Liver): 0%
Hepatotoxicity (choleostasis) [2]: 0
Hepatotoxicity (cirrhosis) [3]: 0
Hepatotoxicity (steatosis) [4]: 0
Hepatotoxicity (cytolytic) [5]: 0
Hepatotoxicity (association with vascular disease) [6]: 0
Hepatotoxicity (chronic liver disease) [7]: 0
Hepatotoxicity (severe hepatitis) ([8]; Liver): 0
Hepatotoxicity (malignant tumour) [9]: 0
Hepatotoxicity (benign tumour) [10]: 0
Hepatotoxicity (granulomatous hepatitis) [11]: 0
Hepatotoxicity (moderate) [12]: 0

C#C[C@]1(O)CC[C@H]2[C@@H]3CCC4=CC(=O)CC[C@@H]4[C@H]3CC[C@@]21CC [LEVONORGESTREL]
Hepatotoxicity (moderate) ([1]; Liver): 0.4%
Hepatotoxicity (choleostasis) ([2]; Liver): 0
Hepatotoxicity (cirrhosis) [3]: 0
Hepatotoxicity (steatosis) [4]: 0
Hepatotoxicity (cytolytic) ([5]; Liver): 0
Hepatotoxicity (association with vascular disease) [6]: 0
Hepatotoxicity (chronic liver disease) [7]: 0
Hepatotoxicity (severe hepatitis) ([8]; Liver): 0
Hepatotoxicity (malignant tumour) [9]: 0
Hepatotoxicity (benign tumour) [10]: 0
Hepatotoxicity (granulomatous hepatitis) ([11]; Liver): 0
Hepatotoxicity (moderate) [12]: 1

O=c1oc2ccccc2c(O)c1Cc1c(O)c2ccccc2oc1=O [DICUMAROL]
Hepatotoxicity (moderate) [1]: 0%
Hepatotoxicity (choleostasis) [2]: 0
Hepatotoxicity (cirrhosis) [3]: 0
Hepatotoxicity (steatosis) [4]: 0
Hepatotoxicity (cytolytic) [5]: 0
Hepatotoxicity (association with vascular disease) [6]: 0
Hepatotoxicity (chronic liver disease) [7]: 0
Hepatotoxicity (severe hepatitis) [8]: 0
Hepatotoxicity (malignant tumour) [9]: 0
Hepatotoxicity (benign tumour) [10]: 0
Hepatotoxicity (granulomatous hepatitis) [11]: 0
Hepatotoxicity (moderate) [12]: 3
